From PMC11923385, “Rational Design, Synthesis, and Biological Assessment of Potential Indole‐Capped HDAC6 Inhibitors for Gastric Cancer Suppression” (MedComm, 2025)
Read-outs that look alike come from different tables or passages of the source.

What was measured:
HDAC1 = HDAC1 (Homo sapiens, UniProt Q13547); assay: HDAC1 enzyme activity assay; assay type: biochemical; conditions: HDAC1 compared to HDAC6
HDAC2 = HDAC2 (Homo sapiens, UniProt Q92769); assay: HDAC2 enzyme activity assay; assay type: biochemical; conditions: HDAC2 compared to HDAC6
Sequence of HDAC2 (Q92769 whole entry, species assumed): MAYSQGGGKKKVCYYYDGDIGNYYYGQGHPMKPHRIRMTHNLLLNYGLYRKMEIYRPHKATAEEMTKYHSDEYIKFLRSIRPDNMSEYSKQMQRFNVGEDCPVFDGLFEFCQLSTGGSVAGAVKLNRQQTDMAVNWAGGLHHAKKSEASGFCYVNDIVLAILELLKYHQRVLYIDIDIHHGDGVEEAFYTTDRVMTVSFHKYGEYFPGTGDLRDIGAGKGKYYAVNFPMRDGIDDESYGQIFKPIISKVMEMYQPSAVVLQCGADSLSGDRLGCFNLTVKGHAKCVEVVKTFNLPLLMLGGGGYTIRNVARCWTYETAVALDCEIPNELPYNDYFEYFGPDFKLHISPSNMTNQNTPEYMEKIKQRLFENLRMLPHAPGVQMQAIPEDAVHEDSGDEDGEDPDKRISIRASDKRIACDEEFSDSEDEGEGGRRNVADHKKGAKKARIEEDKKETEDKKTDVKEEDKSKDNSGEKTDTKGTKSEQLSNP

HDAC3 = HDAC3 (Homo sapiens, UniProt O15379); assay: HDAC3 enzyme activity assay; assay type: biochemical; conditions: HDAC3 compared to HDAC6
Sequence of HDAC3 (O15379 whole entry, species assumed): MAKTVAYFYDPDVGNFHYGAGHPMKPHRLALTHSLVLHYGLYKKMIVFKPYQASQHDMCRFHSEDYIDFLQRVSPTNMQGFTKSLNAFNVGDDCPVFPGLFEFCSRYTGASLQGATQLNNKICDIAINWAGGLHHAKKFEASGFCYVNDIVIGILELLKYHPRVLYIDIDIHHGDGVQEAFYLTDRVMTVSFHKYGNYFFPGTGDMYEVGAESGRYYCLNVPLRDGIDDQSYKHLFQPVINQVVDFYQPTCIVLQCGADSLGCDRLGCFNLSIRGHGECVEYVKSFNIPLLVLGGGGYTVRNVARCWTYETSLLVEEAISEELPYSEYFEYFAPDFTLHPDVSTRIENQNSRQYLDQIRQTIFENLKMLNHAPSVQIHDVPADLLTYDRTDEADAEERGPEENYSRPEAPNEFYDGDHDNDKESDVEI
Sequence of HDAC3 (Q9Y618 395-489 partner limits assumed, species assumed): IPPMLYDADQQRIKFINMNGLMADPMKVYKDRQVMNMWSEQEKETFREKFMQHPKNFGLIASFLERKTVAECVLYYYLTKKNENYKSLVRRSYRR

HDAC8 = target: T1, HDAC8 (Homo sapiens, UniProt Q9BY41); assay: HDAC8 enzyme activity assay; assay type: biochemical; conditions: HDAC8 compared to HDAC6
T1 sequence (Q9BY41 1-377): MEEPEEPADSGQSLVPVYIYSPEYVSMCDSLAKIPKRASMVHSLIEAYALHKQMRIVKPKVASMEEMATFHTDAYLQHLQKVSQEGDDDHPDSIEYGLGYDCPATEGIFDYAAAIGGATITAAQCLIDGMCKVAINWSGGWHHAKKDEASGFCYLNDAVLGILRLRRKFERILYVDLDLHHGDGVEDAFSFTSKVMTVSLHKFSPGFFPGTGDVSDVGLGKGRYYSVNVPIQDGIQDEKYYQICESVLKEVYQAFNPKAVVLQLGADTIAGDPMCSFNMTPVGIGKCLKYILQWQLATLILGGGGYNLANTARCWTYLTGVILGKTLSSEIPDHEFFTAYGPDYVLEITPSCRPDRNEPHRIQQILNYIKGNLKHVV
Procedure: (§1) The HDAC6 substrate Ac-Lys-AMC (Chinapeptides, China), human recombinant protein HDAC6 (100 ng/mL) (BPS bioscience, USA), and the test compounds were incubated together at 37°C in an assay buffer. The assay buffer consisted of 25 mM HEPES (pH 7.5), 100 mM NaCl, 2.5 mM KCl, 0.005% Tween-20, 1 mM MgCl2, and 0.1 mg/mL bovine serum albumin. After incubation for 1 hour, trypsin was added to release the fluorescent fragment.

HDAC6 [1] = target: T2, HDAC6 (Homo sapiens, UniProt Q9UBN7); assay: BLI binding assay; conditions: biotinylated HDAC6 on streptavidin biosensors
T2 sequence (Q9UBN7 1-1215): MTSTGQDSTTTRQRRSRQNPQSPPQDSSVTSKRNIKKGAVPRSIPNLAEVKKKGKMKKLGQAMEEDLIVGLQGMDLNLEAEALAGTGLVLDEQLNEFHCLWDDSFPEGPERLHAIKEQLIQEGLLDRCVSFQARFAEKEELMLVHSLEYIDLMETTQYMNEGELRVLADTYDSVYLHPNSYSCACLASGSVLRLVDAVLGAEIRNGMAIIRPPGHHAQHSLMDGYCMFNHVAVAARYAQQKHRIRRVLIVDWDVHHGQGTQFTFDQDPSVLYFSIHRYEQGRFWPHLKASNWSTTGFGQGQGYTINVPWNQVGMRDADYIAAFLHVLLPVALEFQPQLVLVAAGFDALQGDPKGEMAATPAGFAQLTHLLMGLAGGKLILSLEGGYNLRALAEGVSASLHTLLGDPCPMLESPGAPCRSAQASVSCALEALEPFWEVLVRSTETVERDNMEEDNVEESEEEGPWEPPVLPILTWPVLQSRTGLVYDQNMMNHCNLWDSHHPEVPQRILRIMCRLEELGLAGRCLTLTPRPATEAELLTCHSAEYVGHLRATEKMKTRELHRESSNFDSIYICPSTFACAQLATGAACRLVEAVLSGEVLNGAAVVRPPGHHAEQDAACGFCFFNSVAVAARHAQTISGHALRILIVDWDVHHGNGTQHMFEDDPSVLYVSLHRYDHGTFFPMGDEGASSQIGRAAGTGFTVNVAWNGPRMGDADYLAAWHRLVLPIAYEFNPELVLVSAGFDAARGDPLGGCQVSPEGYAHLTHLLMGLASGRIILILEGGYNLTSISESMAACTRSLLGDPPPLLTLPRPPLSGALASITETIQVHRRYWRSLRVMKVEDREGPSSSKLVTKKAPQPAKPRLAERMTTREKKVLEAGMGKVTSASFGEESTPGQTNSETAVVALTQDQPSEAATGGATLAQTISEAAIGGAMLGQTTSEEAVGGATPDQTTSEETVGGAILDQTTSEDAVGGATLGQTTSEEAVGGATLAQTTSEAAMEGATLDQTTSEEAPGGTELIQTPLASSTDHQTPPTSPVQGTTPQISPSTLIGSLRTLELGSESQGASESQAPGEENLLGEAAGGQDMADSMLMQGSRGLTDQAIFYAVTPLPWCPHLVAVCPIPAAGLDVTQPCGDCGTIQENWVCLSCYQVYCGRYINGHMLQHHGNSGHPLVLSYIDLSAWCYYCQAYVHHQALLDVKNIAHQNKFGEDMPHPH
Procedure: BLI experiments were conducted using an Octet Red 96 instrument (ForteBio). Streptavidin-coated biosensors (SA, ForteBio) were utilized, and biotinylated HDAC6 protein (50 μg/mL) was immobilized on the biosensor surface. The immobilization levels typically exceeded 0.3 nm. Ligand-loaded SA biosensors were then exposed to various concentrations of compound 10n. The dissociation constants for the interactions between HDAC6 and compound 10n were determined by plotting the increase in BLI response as a function of […].

MGC‐803 cells [2] = assay: Cytotoxicity against MGC-803 cells; assay type: cell-based; conditions: Homo sapiens, 72 h
MKN‐45 cells = assay: Cytotoxicity against MKN-45 cells; assay type: cell-based; conditions: Homo sapiens, 72 h
gastric cancer cells = assay: Apoptosis, mitochondrial membrane potential and apoptosis protein expression in gastric cancer cells; assay type: cell-based
Procedure: (§2) Following the indicated treatment, cells were collected and lysed using the recommended amount of radio immunoprecipitation assay (RIPA) buffer from KMT Bio, China, according to the provided instructions. The protein concentration in the lysate was determined using a bicinchoninic acid (BCA)-based protein quantification kit from KMT Bio, China. Subsequently, the samples were denatured in the presence of a 6× loading buffer from KMT Bio, China. Equal amounts of denatured protein samples were subjected to sodium dodecyl sulfate-polyacrylamide gel electrophoresis (SDS-PAGE), and the target protein was then transferred to a nitrocellulose membrane using the wet transfer method with Pall, USA membranes. The membrane was incubated with 5% non-fat milk at 37°C for 1 hour to block non-specific binding, followed by an overnight incubation at 4°C with the recommended concentration of the primary antibody. Afterward, the membranes were washed three times with PBST (PBS buffer with 0.1% Tween-20) for 10 minutes each. The secondary antibody was then appropriately diluted and incubated with the membrane at room temperature for 1 hour. Finally, the membranes were washed three more times with PBST for 10 minutes each, and the protein bands were visualized using an ECL chemiluminescence detection kit from ThermoFisher, USA.

HDAC6 [3] = target: T2, HDAC6; assay: CETSA of HDAC6 at the cellular level; assay type: cell-based
[4] = test system: HDAC6 (Ac‐α‐tubulin, Ac‐H3 readout); assay: Western blot of HDAC6, Ac-H3 and Ac-α-tubulin in cells; assay type: cell-based
Procedure: as §2

MGC‐803 cells [5] = assay: PD-L1 expression in MGC-803 cells; assay type: cell-based; conditions: compared to vehicle control
[6] = Pharmacokinetic study in mice; assay type: in vivo; conditions: male, ICR, mouse, plasma
Procedure: Six male ICR mice were divided into two groups, receiving compound 10n via intravenous and oral administration, respectively. The intravenous injection group had blood samples collected at 5 min, 15 min, 30 min, 1 h, 2 h, 4 h, 6 h, 8 h, and 24 h post-administration; the oral group had blood samples collected at the same time points. Approximately 0.05 mL of blood was collected for each sample. The concentration of compound 10n in mouse plasma samples was determined using LC-MS/MS method and pharmacokinetic parameters were calculated using WinNolin software.

MFC cells = assay type: in vivo, mice; conditions: for tumor growth inhibition rate (TGI): MFC tumor, 615 mice, 14 days
Procedure: Six-week-old 615 mice (male) were procured from SJA laboratory animals in Hunan, China, and acclimated to a pathogen-free environment for one week before the commencement of the experiment. Subsequently, 5 × 10^5 of gastric cancer cell MFC were subcutaneously administered into the right flank of the mice. Tumor volume was determined using the formula length × width^2/2. […] Following 14 days, the mice were euthanized, and their tumors and vital organs were dissected for analysis. Paraffin sections measuring 4 µm in thickness were subjected to deparaffinization and subsequently treated with 3% hydrogen peroxide to inhibit endogenous peroxidase activity. Following this, slides were prepared to prevent nonspecific antibody binding and were then exposed to primary antibodies targeting HDAC6, Ac-tubulin, Ki-67, and Tunnel. The mice involved in the study were maintained in specific pathogen-free environments, and the experimental procedures were approved by the Ethics Committee of the Zhengzhou University Health Science Centre. The animal experimentation ethics number is ZZU-URIB-2024-O-109. All experimental animals adhered to the ARRIVE guidelines and were strictly in accordance with the National Research Council Guidelines for the Care and Use of Laboratory Animals.

HDAC6 [7] = target: T2, HDAC6; assay: HDAC6 enzymatic assay (Ac-Lys-AMC substrate, fluorescence); assay type: biochemical; set-up: purchased BPS bioscience, USA; conditions: enzyme activity assay
Procedure: as §1

Sequence of HDAC1 (Q13547 whole entry, species assumed): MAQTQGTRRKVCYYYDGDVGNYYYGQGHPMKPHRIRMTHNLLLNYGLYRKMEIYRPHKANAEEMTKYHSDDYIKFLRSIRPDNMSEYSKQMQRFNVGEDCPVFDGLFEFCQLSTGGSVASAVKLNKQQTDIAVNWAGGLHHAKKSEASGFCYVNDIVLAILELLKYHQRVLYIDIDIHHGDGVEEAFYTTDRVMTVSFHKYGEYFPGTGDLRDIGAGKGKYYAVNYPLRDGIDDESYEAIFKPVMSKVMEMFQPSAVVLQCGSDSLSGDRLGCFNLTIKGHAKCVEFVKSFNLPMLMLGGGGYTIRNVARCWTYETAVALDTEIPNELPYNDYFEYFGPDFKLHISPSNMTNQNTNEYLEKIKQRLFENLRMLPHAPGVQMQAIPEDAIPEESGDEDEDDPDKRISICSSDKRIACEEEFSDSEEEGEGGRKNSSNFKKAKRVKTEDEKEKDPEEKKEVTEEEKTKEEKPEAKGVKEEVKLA

Question: For O=C(NO)c1ccc(CNC(=O)c2cn(CC3CC3)c3ccccc23)cc1 [Compound 10n], which “selectivity ratio HDAC1/6” value (HDAC1) is on record?
Answer: Its value is 133.7 fold.

Question: And the “selectivity ratio HDAC2/6” value (HDAC2)?
Answer: Its value is 27.8 fold.

Question: What about the “selectivity ratio HDAC3/6” value (HDAC3) of the same compound?
Answer: The value was 82.8 fold.

Question: What about the “selectivity ratio HDAC8/6” value (HDAC8) of the same compound?
Answer: The value was 622.22 fold.

Question: And the Kd (HDAC6 [1])?
Answer: Its Kd is 330 ± 180 nM.

Question: And the IC50 (MGC‐803 cells [2])?
Answer: The IC50 was 1070 ± 312 nM.

Question: What about the IC50 (MKN‐45 cells) of the same compound?
Answer: The IC50 was 2700 ± 935 nM.

Question: And the “mitochondrial membrane potential ratios” value (gastric cancer cells)?
Answer: The value was “increase”.

Question: And the “proportion of apoptotic cells” value (gastric cancer cells)?
Answer: Its value is “dose‐dependent increase”.

Question: What about the “HDAC6 thermal stabilization (CETSA)” value (HDAC6 [3]) of the same compound?
Answer: Its value is “notably stabilized HDAC6”.

Question: What about the “acetylated H3 levels and HDAC6” value [4] of the same compound?
Answer: The value was “no impact”.

Question: What about the “acetylated α-tubulin levels” value [4] of the same compound?
Answer: Its value is “dose‐dependent increase”.

Question: And the PD-L1 expression (MGC‐803 cells [5])?
Answer: Its PD-L1 expression is “dose‐dependent reduction”.

Question: And the AUC ([6]; iv)?
Answer: The AUC was 350 ± 51.9 ng·h/mL.

Question: What about the half-life ([6]; iv) of the same compound?
Answer: Its half-life is 1.61 ± 0.34 h.

Question: What about the AUC ([6]; po) of the same compound?
Answer: The AUC was 730 ± 140 ng·h/mL.

Question: What about the bioavailability ([6]; po) of the same compound?
Answer: The bioavailability was 41.8 ± 0.08%.

Question: What about the half-life ([6]; po) of the same compound?
Answer: The half-life was 2 ± 0.44 h.

Question: And the “tumor growth inhibition rate (TGI)” value (MFC cells; oral 10 mg/kg once daily)?
Answer: Its value is 55.3%.

Question: And the “tumor growth inhibition rate (TGI)” value (MFC cells; oral 20 mg/kg once daily)?
Answer: The value was 80.6%.

Question: What about the “toxicity in treated mice (body weight, organs)” value (MFC cells; MFC tumor-bearing mice, 10 or 20 mg/kg oral) of the same compound?
Answer: Its value is “no apparent toxicity”.

Question: What about the “HDAC6 protein expression in treated animals” value (MFC cells; tumor tissue) of the same compound?
Answer: The value was “no changes”.

Question: And the “Ki-67 expression in mice” value (MFC cells; tumor tissue)?
Answer: Its value is “decreased”.

Question: And the “levels of Ac-α-tubulin in treated animals” value (MFC cells; tumor tissue, immunohistochemistry)?
Answer: Its value is “markedly elevated”.

Question: And the “percentages of CD3+CD8+ cells in tumors” value (MFC cells; two treatment groups versus control)?
Answer: The value was “higher than the control”.

Question: And the IC50 (HDAC6 [7])?
Answer: The IC50 was 3.11 nM.
